For this experiment, the system named is lymphocytic leukemia P388. As to the kind of experiment: Lymphocytic Leukemia P388 Test. Type of experiment: in vivo, BDF1 mice. Conditions: for Median Survival: BDF1 mice; for T/C × 100 (%): ratio of survival time treated/control. The procedure:
The animals used were BDF1 mice, all of one sex, weighing a minimum of 18 g and all within a 3 g weight range. There were 5 or 6 mice per test group. The tumor transplant was by intraperitoneal injection of 0.5 ml of dilute ascitic fluid containing 10^6 cells of lymphocytic leukemia P388. The test compounds were administered intraperitoneally on days 1, 5 and 9 (relative to tumor inocu-lation) at various doses. The animals were weighed and survivors recorded on a regular basis for 60 days. The median survival time and the ratio of survival time for treated (T)/control (C) animals were calculated.

[1] abbreviates: dose 0.75 mg/kg intraperitoneally on days 1, 5 and 9.
The mark [2] stands for this setting: dose 1.5 mg/kg intraperitoneally on days 1, 5 and 9.
Setting [3] is: dose 3 mg/kg intraperitoneally on days 1, 5 and 9.
[4] abbreviates: Mus musculus, P388, ip, read-out: T/C × 100 (%).

In the case of `CC(NC(=O)C(N)CC(=O)OC(C)(C)C)C(=O)NC(C)C(=O)NCCNc1ccc(NCCNC(=O)C(C)NC(=O)C(C)NC(=O)C(N)CC(=O)OC(C)(C)C)c2c1C(=O)c1c(O)ccc(O)c1C2=O` [Example 80, N,N'-[(9,10-Dihydro-5,8-dihydroxy-9,10-dioxo-1,4-anthracenediyl)bis(imino-2,1-ethanediyl)]bis[L-α-aspartyl-L-alanyl-L-alaninamide]bis(1,1-dimethylethyl)ester], the “Median Survival” value is 19.0 days under setting [1], 19.5 days under setting [2] and 26.0 days under setting [3]. For the same compound, the “T/C × 100 (%)” value was determined as 173% under setting [1], 177% under setting [2] and 236% under setting [3].

In the case of `CC(C)(C)OC(=O)C[C@H](N)C(=O)NCCNc1ccc(NCCNC(=O)[C@@H](N)CC(=O)OC(C)(C)C)c2c1C(=O)c1c(O)ccc(O)c1C2=O` (relative stereo) [Example 39, [S-(R*,R*)]-4,4'-[(9,10-Dihydro-5,8-dihydroxy-9,10-dioxo-1,4-anthracenediyl)bis(imino-2,1-ethanediylimino)]bis[3-amino-4-oxobutanoic acid]bis(1,1-dimethylethyl)ester], the “Median Survival” value is, setting by setting: under setting [1], 21.5 days; under setting [2], 19.5 days; under setting [3], 19.0 days. Further, the “T/C × 100 (%)” value by setting is: under setting [1], 179%; under setting [2], 163%; under setting [3], 158%.

As for `CC(C)(C)OC(=O)N[C@@H](CCC(=O)OCc1ccccc1)C(=O)NCCNc1ccc(NCCNC(=O)[C@H](CCC(=O)OCc2ccccc2)NC(=O)OC(C)(C)C)c2c1C(=O)c1c(O)ccc(O)c1C2=O` (relative stereo) [Example 43, [S-(R*,R*)]-5,5'-(9,10-Dihydro-5,8-dihydroxy-9,10-dioxo-1,4-anthracenediyl)bis(imino-2,1-ethanediylimino)]bis[4-[[(1,1-dimethylethoxy)carbonvl]amino]-5-oxopentanoic acid]bis(phenylmethyl)ester], the “Median Survival” value stood at 16.5 days under setting [1], 17.0 days under setting [2] and 18.0 days under setting [3]. Moreover, the “T/C × 100 (%)” value is, setting by setting: under setting [1], 150%; under setting [2], 155%; under setting [3], 164%.

On to `N[C@@H](CCC(=O)OCc1ccccc1)C(=O)NCCNc1ccc(NCCNC(=O)[C@@H](N)CCC(=O)OCc2ccccc2)c2c1C(=O)c1c(O)ccc(O)c1C2=O.O=C(O)C(F)(F)F.O=C(O)C(F)(F)F` (relative stereo) [Example 44, [S-(R*,R*)]-5,5'-[(9,10-Dihydro-5,8-dihydroxy-9,10-dioxo-1,4-anthracenediyl)bis(imino-2,1-ethanediylimino)]bis[4-amino-5-oxopentanoic acid]bis(phenylmethyl)ester, bis(trifluoroacetate)], for which the “Median Survival” value runs as follows: under setting [1], 18.0 days; under setting [2], 19.5 days; under setting [3], 24.0 days. Moreover, the “T/C × 100 (%)” value reads like this: under setting [1], 164%; under setting [2], 177%; under setting [3], 218%.

Take `C[C@H](NC(=O)OC(C)(C)C)C(=O)N[C@@H](C)C(=O)N(CCNc1ccc(NCCN(C(=O)[C@H](C)NC(=O)[C@H](C)NC(=O)OC(C)(C)C)[C@@H](C)C(=O)O)c2c1C(=O)c1c(O)ccc(O)c1C2=O)[C@@H](C)C(=O)O` [Example 7., N,N'-[(9,10-Dihydro-5,8-dihydroxy-9,10-dioxo-1,4-anthracenediyl)bis(imino-2,1-ethanediyl)]bis[N-[(1,1-dimethylethoxy)carbonyl]-L-alanyl-L-alanyl-L-alanine]]: under setting [4], the response vs control in vivo at 0.75 mg/kg worked out at 176%, the response vs control in vivo at 1.5 mg/kg stood at 171% and the response vs control in vivo at 3 mg/kg came out at 181%. The “Median Survival” value under setting [1] worked out at 18.5 days. Further, the “Median Survival” value under setting [2] came out at 18.0 days. The “Median Survival” value under setting [3] was 19.0 days.

Turning to `Br.Br.NCC(=O)NCC(=O)NCCNc1ccc(NCCNC(=O)CNC(=O)CN)c2c1C(=O)c1c(O)ccc(O)c1C2=O` [Example 58, N,N'-[(9,10-Dihydro-5,8-dihydroxy-9,10-dioxo-1,4-anthracenediyl)bis(imino-2,1-ethanediyl)]bis[glycyl-glycinamide]dihydrobromide], the “Median Survival” value was 22.0 days under setting [1], 21.5 days under setting [2] and 24.0 days under setting [3]. For the same compound, the “T/C × 100 (%)” value by setting is: under setting [1], 200%; under setting [2], 195%; under setting [3], 218%.

In the case of `CC(C)C[C@H](NC(=O)OCc1ccccc1)C(=O)N[C@@H](C)C(=O)N[C@@H](CC(C)C)C(=O)NCCNc1ccc(NCCNC(=O)[C@H](CC(C)C)NC(=O)[C@H](C)NC(=O)[C@H](CC(C)C)NC(=O)OCc2ccccc2)c2c1C(=O)c1c(O)ccc(O)c1C2=O` [Example 51], the “Median Survival” value turned out to be 20.0 days under setting [1], 19.0 days under setting [2] and 17.0 days under setting [3]. Further, the “T/C × 100 (%)” value turned out to be 182% under setting [1], 173% under setting [2] and 155% under setting [3].

`N[C@@H](CC(=O)OCc1ccccc1)C(=O)NCCNc1ccc(NCCNC(=O)[C@@H](N)CC(=O)OCc2ccccc2)c2c1C(=O)c1c(O)ccc(O)c1C2=O.O=C(O)C(F)(F)F.O=C(O)C(F)(F)F` (relative stereo) [Example 46, [S-(R*,R*)]-4,4'-[(9,10-Dihydro-5,8-dihydroxy-9,10-dioxo-1,4-anthracenediyl)bis(imino-2,1-ethanediylimino)]bis[3-amino-4-oxobutanoic acid]bis(phenylmethyl)ester, bis(trifluoroacetate)]: the “Median Survival” value is, setting by setting: under setting [1], 21.0 days; under setting [2], 25.5 days; under setting [3], 26.0 days. The “T/C × 100 (%)” value by setting is: under setting [1], 191%; under setting [2], 232%; under setting [3], 236%.

Regarding `CC(C)C[C@@H](N)C(=O)N(CCO)CCNc1ccc(NCCN(CCO)C(=O)[C@H](N)CC(C)C)c2c1C(=O)c1c(O)ccc(O)c1C2=O.O=C(O)C(F)(F)F.O=C(O)C(F)(F)F.O=C(O)C(F)(F)F` (relative stereo) [Example 29, [R-(R*,R*)]-N,N'-[(9,10-Dihydro-5,8-dihydroxy-9,10-dioxo-1,4-anthracenediyl)bis(imino-2,1-ethanediyl)]bis-[2-amino-N-(2-hydroxyethyl)-4-methylpentanamide]tris(trifluoroacetate)], the “Median Survival” value runs as follows: under setting [1], 12.0 days; under setting [2], 13.0 days; under setting [3], 15.5 days. The “T/C × 100 (%)” value is, setting by setting: under setting [1], 109%; under setting [2], 118%; under setting [3], 141%.

Consider `N[C@@H](CO)C(=O)NCCNc1ccc(NCCNC(=O)[C@@H](N)CO)c2c1C(=O)c1c(O)ccc(O)c1C2=O.O=C(O)C(F)(F)F.O=C(O)C(F)(F)F` (relative stereo) [Example 36, [S-(R*,R*)]-N,N'-(9,10-Dihydro-5,8-dihydroxy-9,10-dioxo-1,4-anthracenediyl)bis(imino-2,1-ethanediyl)]bis[2-amino-3-hydroxyropanamide]bis(trifluoroacetate)], for which the “Median Survival” value is, setting by setting: under setting [1], 19.0 days; under setting [2], 19.0 days; under setting [3], 23.5 days. The “T/C × 100 (%)” value by setting is: under setting [1], 173%; under setting [2], 173%; under setting [3], 214%.

For the compound `CC(C)C[C@@H](N)C(=O)NCCNc1ccc(NCCNC(=O)[C@H](N)CC(C)C)c2c1C(=O)c1c(O)ccc(O)c1C2=O.Cl.Cl` (stereo in doubt) [Example 20, [(R*,R*)]-N,N'-[(9,10-Dihydro-5,8-dihydroxy-9,10-dioxo-1,4-anthracenediyl)bis(imino-2,1-ethanediyl)]bis-[2-amino-4-methylentanamide], dihydrochloride], the “Median Survival” value is 20.5 days under setting [1], 22.5 days under setting [2] and 23.5 days under setting [3]. The “T/C × 100 (%)” value reads like this: under setting [1], 171%; under setting [2], 188%; under setting [3], 196%.

With `Br.Br.C[C@H](NCCNc1ccc(NCCN[C@@H](C)C(=O)N[C@@H](CCCNC(=N)N)C(=O)OC(C)(C)C)c2c1C(=O)c1c(O)ccc(O)c1C2=O)C(=O)N[C@@H](CCCNC(=N)N)C(=O)OC(C)(C)C` [Example 87, N,N'-[(9,10-Dihydro-5,8-dihydroxy-9,10-dioxo-1,4-anthracenediyl)bis(imino-2,-ethanediyl)]bis[L-alanyl-L-arginine]bis(1,1-dimethylethyl)ester, dihydrobromide], the “Median Survival” value was determined as 17.0 days under setting [1], 19.0 days under setting [2] and 20.5 days under setting [3]. The “T/C × 100 (%)” value runs as follows: under setting [1], 170%; under setting [2], 190%; under setting [3], 205%.

Values taken from US4732970A, “Antitumor amino acid and peptide derivatives of 1,4-bis(aminoalkyl and hydroxy-aminoalkyl)amino)-5,8-dihydroxyanthraquinones” (priority 1986, dated 1988).
